Results published in patent publication US7081447B2, “Organic compounds with biological activity as thrombin inhibitors and use thereof” (Novel Science International GmbH, priority 2001, dated 2006).
Non-standard residues stand in square brackets, D forms with d. Residues, ends and D or L forms follow the SMILES beside them. Cha = N[CH](CC1CCCCC1)C(=O)O; Nle = CCCC[CH](N)C(=O)O; Orn = NCCC[CH](N)C(=O)O

Molecular target: thrombin (Homo sapiens, UniProt P00734)
Assay: in vitro inhibition of thrombin amidase activity (fluorogenic substrate Tos-Gly-Pro-Arg-(7-amino-4-methylcoumarin))
Assay type: biochemical
Design: with 10 μL of human thrombin solution
Details: peptide concentration of 250 nM
Method: (§1) The values of the inhibition constant Ki were obtained from assays, in which thrombin hydrolyzes the fluorogenic substrate Tos-Gly-Pro-Arg-(7-amino-4-methylcoumarin). The assays were performed in 30 μL of assay buffer (0.05 M Tris, 0.1 M NaCl, 0.1% PEG 8000, pH 7.6) with 10 μL of human thrombin solution (10^−5 U/μL in assay buffer) and 140 μL of a solution of the fluorogenic substrate in assay buffer at a concentration v of 30 μM. Solutions of the test compound (10 μL) were added at various concentrations. The rates of substrate hydrolysis were measured by monitoring the reactions of 7-amino-4-methylcoumarin release at 460 nm with use of AMC. The reaction reached a steady state within 3 minutes after thrombin was combined with the substrate and an inhibitor. The kinetic data of the competitive inhibition (Km, Vmax, and Ki) were analyzed with the aid of the Hanes plot (A/V vs. A at various i values).
as §1, with “concentration” for “concentration v”, “using” for “with the aid of”, “values for A; here, A is the substrate concentration and V the reaction rate).” for “i values).”
as §1, with “conducted” for “performed”, “concentration” for “concentration v”, “using” for “with the aid of”, “values for A; here, A is the substrate concentration and V the reaction rate).” for “i values).”

Thrombin inhibition (thrombin amidase activity) [%]	Molecule
72	N-Acetyl-L-Iq3-D-Cha-L-Aze-D-Tyr-L-Har amide [Example 80]
80	N-Acetyl-L-Nhm-D-Cha-L-Aze-D-Tyr-L-Har amide [Example 79]
95	N-Acetyl-L-Phg-D-Cha-L-Aze-D-Tyr-L-Har amide [Example 83]

Further lines, the molecule ahead of its results:

Molecule	Thrombin inhibition (thrombin amidase activity) [%]
N-Acetyl-D-Phe-D-Cha-L-Aze-D-Tyr-L-Har amide [Example 77]	77
N-Acetyl-L-Ala-D-Cha-L-Aze-D-Tyr-L-Har amide [Example 76]	77
N-Acetyl-L-Cha-D-Cha-L-Aze-D-Tyr-L-Har amide [Example 85]	90
N-Acetyl-L-Dcp-D-Cha-L-Aze-D-Tyr-L-Har amide [Example 78]	75
N-Acetyl-L-Nle-D-Cha-L-Aze-D-Tyr-L-Har amide [Example 84]	89
N-Acetyl-L-Pnp-D-Cha-L-Aze-D-Tyr-L-Har amide [Example 86]	72
N-Acetyl-L-Ppd-D-Cha-L-Aze-D-Tyr-L-Har amide [Example 81]	76

Same assay, conditions: peptide concentration of 1 μM

inhibition at 1 µM [%]	Thrombin inhibition (thrombin amidase activity) [%]	Molecule
	53	N-Acetyl-D-Lys-D-Pro-L-Cha-D-Pro-D-Tyr-L-Arg amide [Example 14]
	53	N-Acetyl-D-Val-L-Ala-L-Cha-D-Pro-D-Tyr-L-Arg amide [Example 9]
	63	N-Acetyl-L-Ala-D-Cha-L-Aze-D-Tyr-L-Arg amide [Example 55]
	83	N-Acetyl-L-Ala-D-Cha-L-Aze-D-Tyr-L-Har amide [Example 57]
	44	N-Acetyl-L-Ala-L-Cha-D-Pro-D-Tyr-L-Arg amide [Example 28]

More lines, now with the values behind:

Molecule	inhibition at 1 µM [%]	Thrombin inhibition (thrombin amidase activity) [%]
CCCCC(NC(=O)C(CC1CCCCC1)NC(=O)C(CCCNC(=N)N)NC(C)=O)C(=O)NC(CC1CCCCC1)C(=O)NC(CCC(=O)O)C(N)=O [Example 8, N-Acetyl-L-Arg-L-Cha-L-Nle-L-Cha-D-Glu amide] (Ac-R[Cha][Nle][Cha]E-NH2; configuration not given here)	35	
N-Acetyl-D-Gln-D-His-L-Cha-D-Pro-D-Tyr-L-Arg amide [Example 25]		59
N-Acetyl-D-Glu-L-Cha-D-Pro-D-Tyr-L-Arg amide [Example 26]		58
N-Acetyl-D-Val-D-His-L-Cha-D-Pro-D-Tyr-L-Arg amide [Example 27]		51
N-Acetyl-L-Ala-D-Cha-L-Pro-D-Tyr-L-Har amide [Example 56]		56
N-Acetyl-L-Asp-L-Ser-L-Cha-D-Pro-D-Tyr-L-Arg amide [Example 10]		51
N-Acetyl-L-Ile-L-Arg-L-Cha-D-Pro-D-Tyr-L-Arg amide [Example 29]		61
N-Acetyl-L-Ile-L-Cha-D-Pro-D-Tyr-L-Arg amide [Example 11]		48

Same assay, conditions: peptide concentration of 1 μM; 1 µM

Thrombin inhibition (thrombin amidase activity) [%]	Molecule
48	N-Acetyl-D-Lys-L-Nle-L-Cha-D-Pro-D-Tyr-L-Arg amide [Example 69]
46	N-Acetyl-D-Val-L-Cha-D-Pro-D-Tyr-L-Arg amide [Example 12]
45	N-Acetyl-D-Val-L-Cha-D-Pro-D-Tyr-L-Arg amide [Example 32]
45	N-Acetyl-D-Val-L-Cha-D-Pro-D-Tyr-L-Arg amide [Example 47]
45	N-Acetyl-D-Val-L-Cha-D-Pro-D-Tyr-L-Arg amide [Example 65]
38	N-Acetyl-L-Arg-L-Cha-D-Pro-D-Tyr-L-Arg amide [Example 21]
47	N-Acetyl-L-Arg-L-Cha-D-Pro-D-Tyr-L-Arg amide [Example 38]
47	N-Acetyl-L-Arg-L-Cha-D-Pro-D-Tyr-L-Arg amide [Example 53]
47	N-Acetyl-L-Arg-L-Cha-D-Pro-D-Tyr-L-Arg amide [Example 71]

More lines, now with the values behind:

Molecule	Thrombin inhibition (thrombin amidase activity) [%]
N-Acetyl-D-Lys-L-Nle-L-Cha-D-Pro-D-Tyr-L-Arg amide [Example 20]	44
N-Acetyl-D-Lys-L-Nle-L-Cha-D-Pro-D-Tyr-L-Arg amide [Example 36]	48
N-Acetyl-D-Lys-L-Nle-L-Cha-D-Pro-D-Tyr-L-Arg amide [Example 51]	48
N-Acetyl-D-Tyr-L-Cha-D-Pro-D-Tyr-L-Arg amide [Example 24]	27
N-Acetyl-D-Tyr-L-Cha-D-Pro-D-Tyr-L-Arg amide [Example 37]	47
N-Acetyl-D-Tyr-L-Cha-D-Pro-D-Tyr-L-Arg amide [Example 52]	47
N-Acetyl-D-Tyr-L-Cha-D-Pro-D-Tyr-L-Arg amide [Example 70]	47

Same assay, conditions: peptide concentration of 10 μM

inhibition at 10 µM [%]	Molecule
63	CCCCC(NC(=O)C(CC1CCCCC1)NC(=O)C(CCCNC(=N)N)NC(C)=O)C(=O)NC(CC1CCCCC1)C(=O)NC(CCCN)C(N)=O [Example 3, N-Acetyl-L-Arg-L-Cha-L-Nle-L-Cha-L-Orn amide] (Ac-R[Cha][Nle][Cha][Orn]-NH2; configuration not given here)
78	CC(=O)NC(CCCNC(=N)N)C(=O)NC(CC1CCCCC1)C(=O)NC(CC1CCCCC1)C(=O)NC(CC1CCCCC1)C(=O)NC(CCC(=O)O)C(N)=O [Example 4, N-Acetyl-L-Arg-L-Cha-L-Cha-L-Cha-D-Glu amide] (Ac-R[Cha][Cha][Cha]E-NH2; configuration not given here)
98	[H]/N=C(\N)NCCCC(NC(=O)C(Cc1ccc(O)cc1)NC(=O)C1CCCN1C(=O)C(CC1CCCCC1)NC(=O)C(CCCN/C(N)=N/[H])NC(C)=O)C(N)=O [Example 5, N-Acetyl-L-Arg-L-Cha-D-Pro-D-Tyr-L-Arg amide]
71	[H]/N=C(\N)NCCCC(NC(C)=O)C(=O)NC(CC1CCCCC1)C(=O)NC(CC1CCCCC1)C(=O)NC(CC1CCCCC1)C(=O)NC(CCCN)C(N)=O [Example 6, N-Acetyl-L-Arg-L-Cha-L-Cha-L-Cha-L-Orn amide]
60	CCCCC(NC(=O)C(CC1CCCCC1)NC(=O)C(CCCNC(=N)N)NC(C)=O)C(=O)NC(CC1CCCCC1)C(N)=O [Example 7, N-Acetyl-L-Arg-L-Cha-L-Nle-L-Cha amide] (Ac-R[Cha][Nle][Cha]-NH2; configuration not given here)

Same assay, conditions: peptide concentration of 25 μM

inhibition at 25 µM [%]	Molecule
66	[H]/N=C(\N)NCCCC(NC(C)=O)C(=O)NC(CC1CCCCC1)C(=O)NC(CCCC)C(=O)NC(CC1CCCCC1)C(=O)NC(CCC(N)=O)C(N)=O [Example 1, N-Acetyl-L-Arg-L-Cha-L-Nle-L-Cha-D-Gln amide]
68	[H]/N=C(\N)NCCCC(NC(C)=O)C(=O)NC(CC1CCCCC1)C(=O)NC(CC(=O)O)C(=O)NC(CC1CCCCC1)C(N)=O [Example 2, N-Acetyl-L-Arg-L-Cha-L-Asp-L-Cha amide]
